In brackets after ≈: the same amount, converted by molar mass. Blank lines part the entries; values can stand above or below the compound they belong to.
What was measured:
[1] = tested on: cytomegalovirus (A0169 strain); test: Anti-cytomegalovirus activity, plaque formation in human fetal fibroblasts; format: cell-based; conditions: Human betaherpesvirus 5, Fibroblast, 240 h, 100 PFU, 37° C., 10 days, read-out: Anti-cytomegalovirus Activity ED50 (50% inhibitory value)
Protocol: Anti-cytomegalovirus activity was determined by the following manner. A 35 mm.PHI. dish containing a single layer of human fetal fibroblasts was infected with 100 PFU (plaque forming units) of cytomegalovirus (A0169 strain). After adsorption for one hour, a medium (0.5% agarose, 2% fetal calf serum) containing a varied concentration of the compound of the present invention was superposed thereon, and the whole was cultured at 37° C. for 10 days in 5% (v/v) carbon dioxide incubator, after which the formation of plaque was measured. The results are shown in Table 3 in terms of 50% inhibitory value (ED50).

HIV = test: Anti-HIV activity in MT-4 cells, development of virus antigen by indirect fluorescent antibody method; format: cell-based; conditions: for EC50: Human immunodeficiency virus 1, MT4, 96 h, MT-4 cells, 4 days culture after HIV infection, read-out: Development of Virus Antigen Activity ED50; for anti-HIV activity (in words): summary of results
Protocol: MT-4 cell (about 10,000 cells/ml) was added to a 24 well tray, and then 100 μl of a solution containing a predetermined quantity of Compound No. 1 of the present invention was added. After culturing at 37° C. for 5 hours in 5% (v/v) carbon dioxide incubator, 10^3 to 10^4 infection units of HIV was added and cultured for 4 days. Then, a part of the cultured fluid was coated onto a slide glass and immobilized with acetone, after which development of virus antigen was observed by indirect fluorescent antibody method.
As the primary antibody of the fluorescent antibody method, a serum of AIDS patient was used. As its secondary antibody, FITC-labelled […] was used.

[2] = target: T1, reverse transcriptase (RTase) of HIV (Human immunodeficiency virus type 1 group M subtype B, UniProt P04585); test: Inhibition of HIV reverse transcriptase (RTase), 3H-AMP uptake; format: biochemical, human immunodeficiency virus (HTLV-IIIB)
T1 construct: Measurement of Activity of Reverse Transcriptase (RTase) of HIV; endogenous in cells; host or cells: MOLT-4/HTLV-IIIB cells persistently infected with HIV (viral protein made by the infection; crude lysate)
Protocol: Measurement of Activity of Reverse Transcriptase (RTase) of HIV
MOLT-4/HTLV-IIIB cells which were persistently infected with HIV were destroyed with Triton X-100 or the like to prepare crude enzyme (RTase).
Using poly(dT) and oligo(dA) as template primers, the following reaction solution was used.
2. Composition of reaction solution
______________________________________
5 mg/ml Bovine serum albumin
1M Tris-HCl buffer (pH 7.8)
100 mM Dithiothreitol 2.0
5 units/ml Oligo(dA) 4.0
Uptake of ^3 H-AMP in the acid-insoluble fraction in the reaction solution under the above conditions was determined by a liquid scintillation counter.

[3] = target: HBV-intrinsic DNA polymerase (Hepatitis B virus adr4, UniProt P12933); test: Inhibitory activity on HBV-intrinsic DNA polymerase, HBV core particles from HB611 cells; format: biochemical
Sequence of HBV-intrinsic DNA polymerase (P12933 whole entry): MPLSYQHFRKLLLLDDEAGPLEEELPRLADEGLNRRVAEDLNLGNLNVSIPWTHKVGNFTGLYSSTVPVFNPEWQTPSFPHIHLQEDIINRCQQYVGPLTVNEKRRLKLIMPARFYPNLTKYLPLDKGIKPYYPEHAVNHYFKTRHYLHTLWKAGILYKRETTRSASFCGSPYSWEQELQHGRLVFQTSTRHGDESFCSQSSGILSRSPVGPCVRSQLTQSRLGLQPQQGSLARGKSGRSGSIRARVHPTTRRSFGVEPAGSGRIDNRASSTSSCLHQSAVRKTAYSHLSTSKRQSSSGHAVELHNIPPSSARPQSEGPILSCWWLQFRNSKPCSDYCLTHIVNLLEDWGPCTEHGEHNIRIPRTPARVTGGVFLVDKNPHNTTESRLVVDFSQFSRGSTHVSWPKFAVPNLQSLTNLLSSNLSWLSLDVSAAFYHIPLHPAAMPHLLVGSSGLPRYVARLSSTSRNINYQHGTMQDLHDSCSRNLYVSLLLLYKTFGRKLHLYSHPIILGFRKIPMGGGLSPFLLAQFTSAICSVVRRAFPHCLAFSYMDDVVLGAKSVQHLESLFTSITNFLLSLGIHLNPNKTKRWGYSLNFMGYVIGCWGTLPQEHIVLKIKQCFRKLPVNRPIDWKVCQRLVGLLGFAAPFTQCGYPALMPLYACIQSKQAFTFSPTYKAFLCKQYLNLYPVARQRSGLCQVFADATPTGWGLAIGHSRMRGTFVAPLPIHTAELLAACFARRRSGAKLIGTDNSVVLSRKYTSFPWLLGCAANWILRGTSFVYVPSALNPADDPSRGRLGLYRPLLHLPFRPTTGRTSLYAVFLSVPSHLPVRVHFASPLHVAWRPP
Protocol: 1. Partial purification of HBV core particles
After HB611 cells were homogenized with buffer solution for extraction shown below, the centrifugal supernatant (14000 rpm, 0° C., 30 minutes) was overlaid on 30% saccharose-containing buffer solution for extraction, which was subjected to supercentrifugation (35000 rpm, 4° C., 18 hours) to give crude core particle precipitates. The crude core particles were suspended in the buffer solution for extraction and purified by cesium chloride density-gradient centrifugation method to give partially purified core particles showing a density of 1.30 to 1.35 g/ml.
Buffer solution for extraction:
2-mercaptoethanol/1 mM PMSF): 10 mM
Tris-hydrochloride (pH 7.4), 1 mM EDTA, 10 mM
2. Measurement of HBV-intrinsic polymerase activity
The partially purified core particles were added to the reaction solution shown below. After incubating at 37° C. for 2 hours in the presence of Compound No. 3 in various concentrations, dCTP was added thereto in a final concentration of 1 mM. After incubation at 37° C. for an additional an hour, proteinase K, SDS, EDTA and tRNA were added thereto in final concentrations of 0.5 mg/ml, 1%, 10 mM and 200 μg/ml, respectively, followed by incubation at 45° C. for 2 hours. Thereafter HBV-DNA was purified by phenolchloroform extraction and ethanol precipitation and then subjected to electrophoresis with 1.5% agarose. Radioactive uptake in HBV-DNA was determined by autoradiography. The autoradiogram was scanned by a densitometer to calculate the inhibitory activity of Compound No. 3 against HBV-DNA polymerase.
Reaction solution: containing 50 mM Tris-hydrochloride
(pH 7.4), 30 mM magnesium chloride, 0.1 M
ammonium chloride, 0.2% 2-mercaptoethanol,
200 μM each of dATP, dGTP and dTTP

[4] = tested on: DNA virus such as cytomegalovirus, hepatitis B virus, herpes virus; test: Antiviral activity (summary statement); conditions: summary of results

- EC50 (HIV): 0.1 µg/mL (≈ 0.302 µM)
SMILES: Nc1ncnc2c1ncn2[C@@H]1O[C@H](COP(=O)(O)O)[C@H]1CO [Compound No. 1]
- EC50 [1]: 1.85 µg/mL (≈ 5.59 µM)
- anti-HIV activity (in words) (HIV): excellent anti-HIV activity

SMILES: Nc1ncnc2c1ncn2[C@@H]1O[C@H](COP(=O)(O)OP(=O)(O)OP(=O)(O)O)[C@H]1CO [Compound No. 2]
- inhibition at 4.17 µM ([2]; 4.17 μM, 37° C., 1 hour): 1%
- inhibition at 12.5 µM ([2]; 12.5 μM, 37° C., 1 hour): 33.9%
- inhibition at 125 µM ([2]; 125 μM, 37° C., 1 hour): 93%
- inhibition at 417 µM ([2]; 417 μM, 37° C., 1 hour): 98.8%
- inhibition at 42.7 µM ([2]; read-out: RTase Inhibition (%)): 69.4%
- reverse transcriptase inhibitory action of HIV (in words) ([2]; summary of results): shows reverse transcriptase inhibitory action of HIV

- inhibition at 100 µM ([3]; 100 μM, read-out: Inhibition Rate (HBV-DNA polymerase)): 50.7%
- inhibition at 200 µM ([3]; 200 μM, read-out: Inhibition Rate (HBV-DNA polymerase)): 88.8%
- inhibition at 400 µM ([3]; 400 μM, read-out: Inhibition Rate (HBV-DNA polymerase)): 96.8%
SMILES: Nc1nc2c(ncn2[C@@H]2O[C@H](COP(=O)(O)OP(=O)(O)OP(=O)(O)O)[C@H]2CO)c(=O)[nH]1 [Compound No. 3]
- inhibition of DNA polymerase of DNA virus (in words) ([3]; summary of results, 'the aforesaid DNA virus'): inhibits DNA polymerase of the aforesaid DNA virus

SMILES: Nc1nc2c(ncn2[C@@H]2O[C@H](COP(=O)(O)O)[C@H]2CO)c(=O)[nH]1 [Compound No. 5]
- EC50 [1]: 0.4 µg/mL (≈ 1.15 µM)
- antiviral activity against DNA virus (in words) [4]: excellent antiviral activity against DNA virus

- EC50 (HIV): 0.007 µg/mL (≈ 0.0232 µM)
SMILES: Nc1ncnc2c1ncn2[C@H]1C[C@@H](COP(=O)(O)O)O1 [Compound No. 6]
- anti-HIV activity (in words) (HIV): excellent anti-HIV activity

— patent US5179084A, “Antiviral phosphoric acid esters of oxetanocins” (Nippon Kayaku Kabushiki Kaisha, priority 1989, dated 1993)
